# Where a SMILES comes first, the peptide text is derived from it. Bridges are numbered along the chain shown (N, C = ends). [ ]: non-standard residue; d: D form. The star is where a group is joined. DOTA = O=C(O)CN1CCN(CC(=O)O)CCN(CC(=O)*)CCN(CC(=O)O)CC1; Pen = CC(C)(S)[C@H](N)C(=O)O; Orn = NCCC[C@H](N)C(=O)O; Ahx = NCCCCCC(=O)O
# What was measured:
# [1] = target: T1, human UT (Homo sapiens, UniProt Q9UKP6); experiment: Competition binding of ^125I-hUII on HEK-293 cells expressing UT; conditions: displacement of ^125I-hUII (0.2 nM), HEK-293 cells expressing human UT, 2 h 22 °C
# T1 construct: expressed in transfected cells; host or cells: HEK-293
# T1 sequence (Q9UKP6 1-389): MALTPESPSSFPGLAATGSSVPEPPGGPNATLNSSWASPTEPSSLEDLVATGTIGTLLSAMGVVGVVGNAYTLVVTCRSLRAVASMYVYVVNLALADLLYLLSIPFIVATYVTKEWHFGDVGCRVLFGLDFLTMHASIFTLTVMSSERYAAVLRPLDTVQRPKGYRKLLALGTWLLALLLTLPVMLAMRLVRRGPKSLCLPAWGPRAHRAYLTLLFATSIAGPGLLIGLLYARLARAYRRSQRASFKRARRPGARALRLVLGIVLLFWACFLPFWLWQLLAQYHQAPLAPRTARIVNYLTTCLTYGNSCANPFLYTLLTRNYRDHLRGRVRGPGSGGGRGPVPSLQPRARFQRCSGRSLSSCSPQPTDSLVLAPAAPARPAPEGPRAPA
# Experimental: Cultured HEK-293 cells expressing UT-MYC were rinsed three times with PBS, dried under a cold air stream and stored at −80 °C until binding experiments. […] At the end of the incubation, cells were washed three times with assay buffer, solubilised with 1% SDS and the radioactivity was counted in a gamma counter (LKB Wallac, Evry, France).
# [2] = target: T1, human UT; experiment: Calcium assay (fluo-4, FlexStation) in HEK-293 cells expressing UT; type: cell-based; conditions: [Ca^2+]c increase, HEK-293 cells expressing human UT, 10^−11 to 10^−6 M
# Experimental: HEK-293 cells expressing UT-MYC were plated at 50,000 cells/well into clear-bottom, black, 96-well plates (Corning, Bagneaux-sur-Loing, France), previously coated with poly-L-ornithine (100 µg/mL, 1 h, 37 °C) and incubated overnight in culture medium. After 24 h, cells were rinsed twice with HBSS buffer (20 mM HEPES, 0.5 mM MgCl2, 2.6 mM CaCl2, 7.7 mM Na2CO3, 1.4 mM MgSO4, 5.3 mM KCl, 138 mM NaCl, 0.1% BSA, 5.5 mM glucose, 2.5 mM probenecid, pH 7.4) (Sigma Aldrich, Saint-Quentin-Fallavier, France) and loaded (40 min at 37 °C) with the calcium-sensitive dye fluo-4 AM (ThermoFisher Scientific, Montigny-Le-Bretonneux, France) containing pluronic acid (20% in DMSO). […] Data were expressed as the ratio of maximum response to the average control value.
# [3] = target: T1, human UT; experiment: UT internalisation assay (ELISA) in HEK-293 cells expressing UT-MYC; type: cell-based; conditions: 1 h, graded concentrations up to 10^−6 M
# Experimental: For ELISA experiments, HEK-293 cells expressing UT-MYC were plated at 10,000 cells/well into white, 96-well plates (Corning, Bagneaux-sur-Loing, France), previously coated with poly-L-ornithine (100 µg/mL, 1 h, 37 °C) and incubated overnight in culture medium. […] Cells were permeabilised or not with Triton X-100 (0.05%, 5 min). Non-specific binding sites were blocked with FBS (10%) and normal donkey serum (NDS, 2%, 1 h). Cells were then incubated with anti-MYC antibody (1 h, 20 °C) followed by incubation with GAM-HRP (1 h, 20 °C). After washes, chemoluminescence was detected with an ELISA kit (ThermoFisher Scientific, Montigny-Le-Bretonneux, France) and the InfinitePro200 plate reader (TECAN FRANCE, Lyon). Data are expressed as the ratio between intensity measured on the permeabilised cells and that measured on the non-permeabilised cells, compared to the average control value.
# [4] = target: T2, human UT-GFP (Homo sapiens, UniProt Q9UKP6); experiment: UT internalisation by confocal microscopy in HEK-293 cells expressing UT-GFP; type: cell-based; conditions: 10^−7 M, 1 h
# T2 construct: expressed in transfected cells; host or cells: HEK-293 (transient)
# T2 sequence (Q9UKP6 1-389): T1 sequence (Q9UKP6 1-389)
# Experimental: For cytochemistry experiments, HEK-293 cells expressing UT-GFP were seeded at 70,000 cells/well into transparent, 24-well plates (Corning, Bagneaux-sur-Loing, France), previously coated with human fibronectin (25 µg/mL, overnight, 4 °C) and incubated overnight in culture medium. […] Cells were rinsed with PBS, fixed with paraformaldehyde (4%, 10 min) and counterstained with DAPI (1 µg/mL, 5 min) to label nuclei. Image analysis was performed by confocal microscopy (Leica TCS SP8 confocal laser scanning microscope).
# [5] = in vivo; set-up: species or system Swiss (nu/nu) mice; conditions: Swiss (nu/nu), mouse, iv, 2 MBq
# Experimental: For tumour targeting studies, inocula (100 µL) containing a suspension of 5 × 10^6 freshly harvested A549 or DLD-1 cells in phosphate buffered-saline were injected subcutaneously into the right shoulder blade in Swiss (nu/nu) mice (n = 5 in each group). When the tumour size reached 250 mm^3 (approximatively 2-weeks), 2 MBq of ^111In-DOTA-hUII or ^111In-DOTA-urantide were injected into the tail vein. After 24 h, animals were sacrificed, and tumours were collected, directly frozen in isopentane (−50 °C) and stored at −80 °C.
# [6] = in vitro; type: in vitro ADME, human
# Experimental: The mixture was incubated in a 5% CO2, 37 °C and 100 μL aliquots (in triplicates) were removed at different time points and treated with 200 μL of EtOH to precipitate serum proteins. Samples were then centrifuged for 15 min at 2500g and after centrifugation, 50 μL of supernatant was counted, and also analysed by thin layer chromatography to determine the amount of intact peptide and its metabolites in the serum.
# [7] = set-up: species or system C57BL/6 mice; conditions: mouse, in vivo, iv
# Experimental: For biodistribution studies, C57BL6/6 wild-type mice were injected with ^111In-DOTA-hUII (3 MBq, 100 µL) into the tail vein. Mice were sacrificed at 4, 24, 48 and 72 h post-injection and blood and organs were collected. All samples were analysed with a gamma counter and the data presented were calculated as the percent injected dose per gram of tissue (% ID/g). Data were expressed as mean ± SEM obtained from four animals per kinetic time.
# [8] = test system: DLD-1 cells; experiment: Cell migration assay (modified Boyden chamber), DLD-1; type: cell-based, human; conditions: 10^−9 or 10^−7 M, 24 h
# Experimental: (§1) DLD-1 and A549 cells were seeded (50,000 cells) on transwell filters with 8-µm pores previously coated with human fibronectin (25 µg/mL, 4 °C, overnight) in serum-free medium on the upper chamber. […] After 24 h incubation period at 37 °C, filters were rinsed with PBS and non-migrating cells were removed from the upper surface by using a cotton-swab. Migrating cells were fixed in successive baths of methanol (50, 70, 90 and 100%), stained with eosin and haematoxylin and filters were mounted on glass slides with Mowiol. Random phase contrast images of filters were then recorded, using a digital camera connected to a Nikon microscope (Eclipse TS-100) and image analysis was performed by using Image J’s Cell Counter. The data were represented as the ratio of treatment chemoattraction normalised to control.
# [9] = test system: A549 cells; experiment: Cell migration assay (modified Boyden chamber), A549; type: cell-based, human; conditions: 10^−9 or 10^−7 M, 24 h
# Experimental: as §1
# [10] = test system: DLD-1 cells; experiment: Cell proliferation, DLD-1; type: cell-based, human; conditions: 10^−9 or 10^−7 M, only observable after 48 h
# [11] = test system: A549 cells; experiment: Cell proliferation, A549; type: cell-based, human; conditions: 10^−9 or 10^−7 M, only observable after 48 h
# [12] = total radioactivity, Ratio tumour/muscle
SMILES,IC50 [1] [µM],EC50 [2] [µM],internalisation rate of UT (ELISA) [3],accumulation of UT in cytosolic puncta (confocal microscopy) [4],tissue to tissue ratio at 24 h [5],tissue to tissue ratio at 24 h ([5]; Ratio tumour/muscle),tissue to tissue ratio at 24 h ([5]; total radioactivity),"tissue to tissue ratio at 24 h [5, 12]",tissue to tissue ratio at 24 h ([5]; tumour/muscle ratio),further results
"CC(C)[C@H](NC(=O)[C@@H]1CSSC(C)(C)[C@H](NC(=O)[C@@H](N)CC(=O)O)C(=O)N[C@@H](Cc2ccccc2)C(=O)N[C@H](Cc2c[nH]c3ccccc23)C(=O)N[C@@H](CCCN)C(=O)N[C@@H](Cc2ccc(O)cc2)C(=O)N1)C(=O)O [urantide, c-[Pen^5, D-Trp^7, Orn^8]hUII4-11, reference compound] (H-D[Pen]F[dW][Orn]YCV-OH; disulfide 2-7; N-terminus and C-terminus assumed)",0.029 ± 0.0112,0.0505 ± 0.0161,failed to provoke UT internalisation,ineffective,–,–,–,–,–,–
"CC(C)[C@H](NC(=O)[C@@H]1CSSC[C@H](NC(=O)[C@H](CC(=O)O)NC(=O)[C@@H]2CCCN2C(=O)[C@@H](NC(=O)[C@H](CCC(=O)O)NC(=O)CCCCCNC(=O)CN2CCN(CC(=O)O)CCN(CC(=O)O)CCN(CC(=O)O)CC2)[C@@H](C)O)C(=O)N[C@@H](Cc2ccccc2)C(=O)N[C@@H](Cc2c[nH]c3ccccc23)C(=O)N[C@@H](CCCCN)C(=O)N[C@@H](Cc2ccc(O)cc2)C(=O)N1)C(=O)O [DOTA-hUII, DOTA-Ahx-ETPD[CFWKYC]V]",0.00913 ± 0.00206,0.0194 ± 0.00247,"exerted similar effects, with very close potency and efficacy",promoted a strong accumulation of UT in cytosolic puncta into cells,2.85 ± 0.66,3.33 ± 0.96,–,–,–,–
"CC(C)[C@H](NC(=O)[C@@H]1CSSC[C@H](NC(=O)[C@H](CC(=O)O)NC(=O)[C@@H]2CCCN2C(=O)[C@@H](NC(=O)[C@H](CCC(=O)O)NC(=O)CCCCCNC(=O)CN2CCN(CC(=O)O)CCN(CC(=O)O)CCN(CC(=O)O)CC2)[C@@H](C)O)C(=O)N[C@@H](Cc2ccccc2)C(=O)N[C@@H](Cc2c[nH]c3ccccc23)C(=O)N[C@@H](CCCCN)C(=O)N[C@@H](Cc2ccc(O)cc2)C(=O)N1)C(=O)O [^111In-DOTA-hUII, metal not drawn]",–,–,–,–,–,–,2.85 ± 0.66,3.33 ± 0.96,~2.5,"Percent of Radiolabelled Peptide [6]: 98 ± 2 (%); metabolised at 3 h, 0.6 µM ([6]; human, serum): 30%; remaining at 1 h, 0.6 µM ([6]; human, serum): 82 ± 2%; remaining at 3 h, 0.6 µM ([6]; human, serum): 71 ± 4%; radioactive DOTA-peptide cleared from animals [7]: more than 90%"
"CC(C)[C@H](NC(=O)[C@@H]1CSSC(C)(C)[C@H](NC(=O)[C@H](CC(=O)O)NC(=O)CCCCCNC(=O)CN2CCN(CC(=O)O)CCN(CC(=O)O)CCN(CC(=O)O)CC2)C(=O)N[C@@H](Cc2ccccc2)C(=O)N[C@H](Cc2c[nH]c3ccccc23)C(=O)N[C@@H](CCCN)C(=O)N[C@@H](Cc2ccc(O)cc2)C(=O)N1)C(=O)O [DOTA-urantide, DOTA-Ahx-D[Pen-F-W-Orn-YC]V] ({DOTA-Ahx}-D[Pen]F[dW][Orn]YCV-OH; disulfide 2-7)",–,–,failed to provoke UT internalisation,ineffective,2.08 ± 0.45,2.47 ± 0.15,–,–,–,–
"CC(C)[C@H](NC(=O)[C@@H]1CSSC[C@H](NC(=O)[C@H](CC(=O)O)NC(=O)[C@@H]2CCCN2C(=O)[C@@H](NC(=O)[C@@H](N)CCC(=O)O)[C@@H](C)O)C(=O)N[C@@H](Cc2ccccc2)C(=O)N[C@@H](Cc2c[nH]c3ccccc23)C(=O)N[C@@H](CCCCN)C(=O)N[C@@H](Cc2ccc(O)cc2)C(=O)N1)C(=O)O [hUII, H2N-ETPDc-[CFWKYC]V-CO2H]",–,–,provoked a dose-dependent increase in internalisation rate of UT,promoted a strong accumulation of UT in cytosolic puncta into cells,–,–,–,–,–,chemotactic migration [8]: stimulated chemotactic migration; chemotactic migration [9]: stimulated chemotactic migration; proliferation rate [10]: increase the proliferation rate; proliferation rate [11]: increase the proliferation rate
"CC(C)[C@H](NC(=O)[C@@H]1CSSC(C)(C)[C@H](NC(=O)[C@H](CC(=O)O)NC(=O)CCCCCNC(=O)CN2CCN(CC(=O)O)CCN(CC(=O)O)CCN(CC(=O)O)CC2)C(=O)N[C@@H](Cc2ccccc2)C(=O)N[C@H](Cc2c[nH]c3ccccc23)C(=O)N[C@@H](CCCN)C(=O)N[C@@H](Cc2ccc(O)cc2)C(=O)N1)C(=O)O [^111In-DOTA-urantide, metal not drawn] ({DOTA-Ahx}-D[Pen]F[dW][Orn]YCV-OH; disulfide 2-7)",–,–,–,–,–,–,2.08 ± 0.45,2.47 ± 0.15,~2.5,–

# Source: article PMC7175314, “Development of Novel ^111-In-Labelled DOTA Urotensin II Analogues for Targeting the UT Receptor Overexpressed in Solid Tumours” (Biomolecules, 2020)
